Consider seven compounds from patent publication US12485127B2, “Compositions and methods for treatment and prevention of actinic keratosis using copper chlorin” (CHL Industries, LLC, priority 2024, dated 2025).

Read-outs that look alike come from different tables or passages of the source.

As usually defined, the EC90 is the point of the concentration-response curve where the effect stands at 90%. In general, EC50 refers to the midpoint of the concentration-response curve. One may read the CC50 as the concentration that lowers cell viability or growth by half.

Data set [1] deals with HPV-11 (HE611260.1 strain). Description: HPV-11 replicon assay (NanoLuc reporter) in C-33 A cells. Type of data set: cell-based, human papillomavirus. Particulars: for EC90 / EC50: host cell line C-33A; for EC50: 48 hours post transfection. How it is done:
(§1) The in vitro testing of the chlorin compounds and the positive control for antiviral cytopathic effect (CPE) was conducted through The National Institute of Allergy and Infectious Diseases (NIAID) NCEA Program. The in vitro testing was done by the method described by Beadle J R, Valiaeva N, Yang G, Yu J H, Broker T R, Aldern K A, et al. Synthesis and Antiviral Evaluation of Octadecyloxyethyl Benzyl 9-[(2-Phosphonomethoxy)ethyl]guanine (ODE-Bn-PMEG), a Potent Inhibitor of Transient HPV DNA Amplification. J Med Chem. 2016; 59(23):10470-8. PubMed PMID: 27933957. This method uses an HPV-11 replicon assay. The replicon (pMP619) is transfected into C-33 A cells grown as monolayers in 384-well plates. At 48 hours post transfection, the enzymatic activity of the destabilized NanoLuc reporter is assessed with NanoGlo reagent. […] The host C-33 A cells are epithelial cells originally isolated from the cervix of a uterine cancer patient. For reasons previously mentioned in this application, in vitro testing of compounds for potential antiviral activity against HPV strains cannot use human keratinocytes as the host cells due to the variable HPV replication activity with this cell line.
The control compound, PMEG, has a molecular weight of 289.188 g/mol. The molecular weight of the copper chlorin compounds evaluated are (1) 661.5 g/mol for disodium copper isochlorin e4; (2) 710.5 g/mol for trisodium copper chlorin p6; (3) 724.15 g/mol for trisodium copper chlorin e6; and (4) 740 g/mol for trisodium copper rhodin g7. The antiviral test results in Table 1 for each treatment composition and the control are reported in micromoles (uM) for the EC50, EC90, and CC50. The SI 50 and SI 90 are calculated from the EC50, EC90, and CC50 data.
(§2) The EC50 (or Effective Concentration 50) is the concentration of the test compound in micromoles that reduces virus replication by 50%. The EC90 (or Effective Concentration 90) is the concentration of the test compound in micromoles that reduces virus replication by 90%. CC50 (or Cytotoxic Concentration 50) is the concentration of the test compound in micromoles that reduces the cell viability of the virus host cell by 50%. The SI50 (or Selectivity Index 50) is a measure of both safety and efficacy or therapeutic index and is calculated by dividing the CC50 by the EC50. The SI90 (Selectivity Index 90) is calculated by dividing the CC50 by the EC90.
(A replicon is a self-replicating genome or part of one, used to study replication in cells.)

For data set [2], the system named is HPV-18 (strain: KC470230.1). Description: HPV-18 genome plasmid replication assay in C-33 A cells. Particulars: for EC50 / EC90: host cell line C-33A. Type of data set: cell-based, human papillomavirus. How it is done: as §1, §2
(§3) The in vitro test method used to assess activity of copper chlorins according to embodiments herein against HPV-18 and HPV-31 used the same replication and quantification method described previously for Table 1 results but with HPV-18 and HPV-31 genome plasmids. Results of the in vitro testing of three of the same copper chlorins as used in Table 1, as well as the same control, against HPV 18 and HPV 31 are summarized in Table 2 and Table 3 below.

Data set [3] relates to HPV-31 (strain: HQ53768.1). Description: HPV-31 genome plasmid replication assay in C-33 A cells. In kind it is cell-based, human papillomavirus. To be noted: for EC50 / EC90: host cell line C-33A. As for the experimental part: as §1, §2, §3
The subject of a further data set is actinic keratosis. To be noted: cited from earlier work.
For data set [4], the system named is Human neonatal epidermal keratinocytes (HEKn). Description: Transcriptome study (Clariom S) of gene regulation in keratinocytes. In kind it is cell-based. Particulars: 20 ug/mL; 24-hour exposure; versus water control. As for the experimental part:
The transcriptome study of copper chlorins was conducted by Sunny Biodiscovery laboratory and Thermo-Fisher Scientific Microarray Research Services Laboratory, both of Santa Clara, California to determine gene regulatory activity and biomarkers associated with activity of the copper chlorins on human skin by assessing gene expression from keratinocyte culture after 24-hour exposure of each of the copper chlorins as previously detailed in U.S. Provisional Application Ser. No. 63/233,229 (filed on Aug. 14, 2021).
Human neonatal epidermal keratinocytes (HEKn) were obtained from Cell Applications 5 (San Diego, CA) and were plated in a 96 well plate (Bioland Scientific, Paramount, CA, item #701003 made of high clarity polystyrene) with keratinocyte growth media (Human EpiVita Serum-Free Growth Medium for Neonatal Cells; Cell Applications, San Diego, CA). Cells were mixed with growth media at a rate of 10,000 cells per 200 μl (approximately 10^4 cells per well) and added to the 96 wells (0.2 mL/well) and incubated overnight at 37° C.
Following the overnight incubation of keratinocytes, each of the 4 copper chlorins evaluated was separately dissolved in sterile distilled water at a concentration of 20 mg/mL. Dissolution occurs at 20-25° C. with slight agitation for 1-2 minutes until no solid particles were visible. This stock solution of 20 mg/mL was then further diluted with sterile water to a concentration of 500 μg/mL. The 500 μg/mL solution of each test copper chlorin was added to the cells in the growth media at a ratio of 1:20 (test solution: cells & media) and incubated in the wells for 24 hours at 37° C.
The following day the test solution and growth media were removed from the wells and the cells were rinsed with phosphate-buffered saline (PBS). The RNA from the cells treated with each of the test compounds was extracted and purified with a RNeasy Mini Plus Kit (Catalogue #74134; Qiagen, Germantown, MD) with automated lysing and homogenization using a Qiacube Connect robotic station (Qiagen, Germantown, MD). The protocol for RNA extraction is selected on the Qiacube Connect automated station and cell samples, labware, and reagents are loaded as instructed. Cells are first lysed and homogenized in highly denaturing guanidine-isothiocyanate-containing Buffer RLT Plus, which immediately inactivates RNases to ensure isolation of intact RNA. The lysate is passed through Qiacube Connect loaded gDNA Eliminator spin columns, 15 ethanol is added to the flow-through, and the samples are then applied to Qiacube preloaded RNeasy MinElute spin columns. RNA binds to the membrane and contaminants are washed away. High quality RNA is eluted and collected in a total of 30 μL sterile distilled water.
The stepwise procedure for production of RNA using RNeasy Plus procedure is outlined FIG. 4. Once collected, the purity of the RNA is assessed with the NanoDrop Lite spectrophotometer (Thermo Fisher Scientific, Waltham, MA) at 260 nm and 280 nm. The NanoDrop Lite unit is a small, stand-alone UV spectrophotometer that is designed 5 to measure microvolumes (1-2 μL) of nucleic acid and protein samples. Purity of the collected RNA was verified by adding 1 μL of the collected RNA to the NanoDrop Lite unit, selecting the RNA application on the NanoDrop Lite Home screen and following the stepwise measuring procedure as detailed in the NanoDrop Lite Manual.
The extracted RNA for each of the four treatment compositions evaluated from the above procedure was then transported on dry ice to a laboratory specializing in transcriptome analysis (Thermo Fisher Scientific Microarray Research Services Laboratory, Santa Clara, CA). The transcriptome profiling of the RNA samples was conducted using the Clariom S GeneChip® Pico Assay platform. […]

For the next data set, the system named is C-33 A cells. Description: Cytotoxicity to virus host cell (CC50). In kind it is cell-based, human.
A short description of data set [5]: Cytotoxicity to virus host cell (CC50). In kind it is cell-based, human. Particulars: human, C-33A host cells.
The subject of data set [6] is HPV-11 (HE611260.1 strain). To be noted: HPV-11 replicon assay; reference range; read-out: EC50 value range of the reference compound for this assay; cited from earlier work.

Turning to Trisodium copper rhodin g7, in data set [1], the 90% effect level (EC90) was put at 58.8 µM and the EC50 was determined as 4.48 µM. Moreover, in data set [2], the “antiviral activity classification based on SI50” value is given as “highly active (SI50>50 highly active)”, the EC50 was determined as 1.19 µM and it took 2.62 µM to reach the 90% level (EC90). In data set [3], this compound showed an EC50 of 0.36 µM and an EC90 of 1.62 µM.

For the compound `O=C(Cc1ccc(-c2ccc(OCCN3CCOCC3)cc2)cn1)NCc1ccccc1` [turbanibulin], the sustained complete clearance in the data set on actinic keratosis (after one year, estimated) is about 27%. For the same compound, the Initial complete clearance in the data set with actinic keratosis (trial 1 vs trial 2) is given as 44-54%.

In data set [1], Disodium copper isochlorin e4 came in with an EC90 of 20.6 µM and an EC50 of 4.63 µM. Moreover, in data set [2], the EC50 turned out to be 3.2 µM and the concentration for an effect of 90% (EC90) is 6.09 µM. In data set [3], this compound yielded an EC50 of 0.25 µM and an EC90 of 4.45 µM. For the same compound, in data set [4], the “CDKN1A cyclin-dependent kinase inhibitor 1A (p21, Cip1) gene regulation (keratinocytes)” value is recorded as “+2.46 fold”; the “EPGN Epithelial mitogen gene regulation (keratinocytes)” value is −3.17 fold; the “KDM7A lysine (K)-specific demethylase 7A gene regulation (keratinocytes)” value is listed as “+2.62 fold”; the “UNC5B Unc-5 netrin receptor B gene regulation (keratinocytes)” value was “+8.06 fold”.

In data set [1], `C=Cc1c(C)c2cc3nc(c(C(=O)[O-])c4[n-]c(cc5nc(cc1[n-]2)C(C)=C5CC)c(C)c4C(=O)[O-])C(CCC(=O)[O-])C3C.[Cu+2].[Na+].[Na+].[Na+]` (centres unmarked) [Trisodium copper chlorin p6] displayed an EC90 of 23.6 µM and an EC50 of 5.51 µM. Moreover, the CC50 in the data set with C-33 A cells came to 58.4 µM. Besides, in data set [4], the “KDM7A lysine (K)-specific demethylase 7A gene regulation (keratinocytes)” value is “+2.38 fold” and the “UNC5B Unc-5 netrin receptor B gene regulation (keratinocytes)” value was “+3.59 fold”.

`Nc1nc2c(ncn2CCOCP(=O)(O)O)c(=O)[nH]1` [9-[2-(phosphono-methoxy)-ethyl]guanine, reference compound]: the EC90 was over 150 µM in data set [1] (Human papillomavirus), 21.3 µM in data set [2] (Human papillomavirus) and 18.4 µM in data set [3] (Human papillomavirus). The EC50 in data set [1] (Human papillomavirus) is 2.27 µM; in data set [2] (Human papillomavirus), 2.33 µM; in data set [3] (Human papillomavirus), 3.92 µM; in data set [6] it was 2 to 9.2 µM. In addition, the results for the CC50 in data set [5] (HPV-11 test (Table 1)), in data set [5] (HPV-18 test (Table 2)) and in data set [5] (HPV-31 test (Table 3)) were over 150 µM, over 250 µM and over 250 µM, respectively.

Take `C=Cc1c(C)c2cc3nc(c(CC(=O)[O-])c4[n-]c(cc5nc(cc1[n-]2)C(C)=C5CC)c(C)c4C(=O)[O-])C(CCC(=O)[O-])C3C.[Cu+2].[Na+].[Na+].[Na+]` (centres unmarked) [Trisodium copper chlorin e6]: in data set [1] (converted with molecular weight 724.15), the “EC50 converted from micromoles” value was determined as 1.998 µg/mL. In data set [1], this compound displayed an EC90 of 24.9 µM and a concentration giving a half-maximal response (EC50) of 2.76 µM. Further, in data set [2], the EC50 amounted to 1.42 µM and the EC90 amounted to 2.97 µM. Besides, in data set [3], the “antiviral activity classification based on SI50” value is listed as “moderately active (SI50=10−49, moderately active)”; the EC50 was 1.75 µM; the 90% effect concentration (EC90) was found to be 3.8 µM. Besides, in data set [4], the “CDKN1A cyclin-dependent kinase inhibitor 1A (p21, Cip1) gene regulation (keratinocytes)” value is “+2.22 fold”; the “CYB561 Cytochrome b561 gene regulation (keratinocytes)” value is listed as −2.28 fold; the “EPGN Epithelial mitogen gene regulation (keratinocytes)” value is −2.56 fold; the “MAPK14 Mitogen-activated protein kinase 14 gene regulation (keratinocytes)” value is on record as −2.23 fold.

Take `O=C(O)Cc1ccccc1Nc1c(Cl)cccc1Cl` [diclofenac]: the AK recurrence rate in the data set on actinic keratosis (after 12 months from initial treatments) was 85%.
